Some results are limits rather than exact numbers.

As usually defined, the IC50 is the concentration that inhibits the measured activity by half.

The target in test [1] is Mitogen-activated protein kinase kinase kinase kinase 4 (Homo sapiens, UniProt O95819). Briefly: Selectivity interaction (Kinase panel (Z-LYTE Assay)) EUB0001632a MAP4K4. The following applies: at 10 µM.
Test [2] addresses Serine/threonine-protein kinase OSR1 (Homo sapiens) (UniProt O95747). Briefly: Selectivity interaction (KinomeScan (DiscoverX)) EUB0000695a OXSR1. The following applies: at 100 nM.
For test [3], the target named is Cyclin-dependent kinase 11B (Homo sapiens) (UniProt P21127). Put plainly: Selectivity interaction (KinomeScan (DiscoverX)) EUB0000666a CDK11B. The following applies: at 10 µM.
The target in test [4] is T1, Beta-adrenergic receptor kinase 1 (Homo sapiens) (UniProt P25098).
T1 sequence (whole entry): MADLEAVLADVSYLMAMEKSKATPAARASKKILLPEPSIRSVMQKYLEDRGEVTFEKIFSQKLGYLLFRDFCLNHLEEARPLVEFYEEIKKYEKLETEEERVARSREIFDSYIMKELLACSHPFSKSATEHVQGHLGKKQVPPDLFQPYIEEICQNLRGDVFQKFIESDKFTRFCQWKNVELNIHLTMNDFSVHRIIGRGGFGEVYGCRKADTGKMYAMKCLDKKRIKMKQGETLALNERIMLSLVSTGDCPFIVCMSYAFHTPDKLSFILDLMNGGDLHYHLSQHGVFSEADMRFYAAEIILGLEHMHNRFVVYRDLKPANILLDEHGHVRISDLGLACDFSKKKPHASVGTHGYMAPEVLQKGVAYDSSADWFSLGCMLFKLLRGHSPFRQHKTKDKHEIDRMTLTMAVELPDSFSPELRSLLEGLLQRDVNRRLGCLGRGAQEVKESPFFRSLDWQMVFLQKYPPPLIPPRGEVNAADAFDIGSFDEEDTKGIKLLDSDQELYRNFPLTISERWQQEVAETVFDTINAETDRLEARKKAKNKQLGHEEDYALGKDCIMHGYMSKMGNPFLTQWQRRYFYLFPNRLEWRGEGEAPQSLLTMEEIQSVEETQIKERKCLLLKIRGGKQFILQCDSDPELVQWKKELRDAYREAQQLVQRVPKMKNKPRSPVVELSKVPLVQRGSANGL
Briefly: Selectivity interaction (SelectScreen profiling (Invitrogen)) EUB0000607a ADRBK1. The following applies: at 2 µM.

For test [5], the target named is Protein kinase C beta type (Homo sapiens, UniProt P05771). Briefly: Selectivity interaction (SelectScreen profiling (Invitrogen)) EUB0000607a PRKCB. The following applies: at 2 µM.
Test [6] deals with T2, MAP kinase-activated protein kinase 2 (Homo sapiens, UniProt P49137). The following applies: at 10 µM.
Test [7] has as its target Ribosomal protein S6 kinase alpha-6 (Homo sapiens, UniProt Q9UK32). Put plainly: Selectivity interaction (Kinase screening (Nanosyn)) EUB0000604a RPS6KA6.
The target of test [8] is Cyclin-dependent kinase 5 (Homo sapiens, UniProt Q00535). Briefly: Selectivity interaction (ActivX KiNativ screen (kinase selectivity in THP-1 cell lysates)) EUB0000639a CDK5. The test is classed as subcellular. The following applies: lysate, at 0.2 µM.
The target of test [9] is Serine/threonine-protein kinase 26 (Homo sapiens, UniProt Q9P289). Briefly: Selectivity interaction (ActivX KiNativ screen (kinase selectivity in THP-1 cell lysates)) EUB0000639a STK26. It is filed as subcellular. To be noted: lysate, at 1 µM.
The target of test [10] is Serine/threonine-protein kinase N2 (Homo sapiens, UniProt Q16513). Put plainly: Selectivity interaction (ActivX KiNativ screen (kinase selectivity in THP-1 cell lysates)) EUB0000639a PKN2. It is filed as subcellular. The following applies: lysate.
Test [11] concerns the target T3, Myosin light chain kinase family member 4 (Homo sapiens) (UniProt Q86YV6).
T3 sequence (whole entry): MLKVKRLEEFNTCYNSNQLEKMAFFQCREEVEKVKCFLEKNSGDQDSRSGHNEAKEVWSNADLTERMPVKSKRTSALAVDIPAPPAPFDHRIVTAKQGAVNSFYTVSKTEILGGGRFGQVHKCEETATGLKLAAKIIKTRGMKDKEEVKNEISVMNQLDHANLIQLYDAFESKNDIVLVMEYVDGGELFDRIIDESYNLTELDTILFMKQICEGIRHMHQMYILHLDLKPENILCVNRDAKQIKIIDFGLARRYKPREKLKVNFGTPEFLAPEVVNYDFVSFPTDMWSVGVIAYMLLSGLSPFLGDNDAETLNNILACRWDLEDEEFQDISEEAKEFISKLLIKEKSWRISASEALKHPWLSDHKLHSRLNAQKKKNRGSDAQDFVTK
Briefly: Selectivity interaction (KinomeScan (DiscoverX)) EUB0000045b MYLK4.

Test [12] has as its target STE20-like serine/threonine-protein kinase (Homo sapiens, UniProt Q9H2G2). Briefly: Selectivity interaction (KinomeScan (DiscoverX)) EUB0000045b SLK.
The target in test [13] is Phosphatidylinositol 4,5-bisphosphate 3-kinase catalytic subunit beta isoform (Homo sapiens) (UniProt P42338). Put plainly: Selectivity interaction (Ambit KINOMEscan and KiNATiv profiling in Jurkat cells) EUB0000090b PIK3CB. The test is classed as cell-based. To be noted: at 1 µM.
The target of test [14] is Atypical kinase COQ8A, mitochondrial (Homo sapiens, UniProt Q8NI60). Briefly: Selectivity interaction (Ambit KINOMEscan and KiNATiv profiling in Jurkat cells) EUB0000090b ADCK3. It is filed as cell-based. The following applies: at 1 µM.
Test [15] addresses Vasopressin V2 receptor (Homo sapiens, UniProt P30518). Put plainly: Selectivity interaction (Vasopressin V2 receptor binding assay, human recombinant ) EUB0000877a AVPR2.
Test [16] addresses T2, MAP kinase-activated protein kinase 2. Briefly: Selectivity interaction (KinomeScan (DiscoverX)) EUB0000655a MAPKAPK2. To be noted: at 10 µM.
The target in test [17] is T4, Serine/threonine-protein kinase Nek2 (Homo sapiens) (UniProt P51955).
T4 sequence (whole entry): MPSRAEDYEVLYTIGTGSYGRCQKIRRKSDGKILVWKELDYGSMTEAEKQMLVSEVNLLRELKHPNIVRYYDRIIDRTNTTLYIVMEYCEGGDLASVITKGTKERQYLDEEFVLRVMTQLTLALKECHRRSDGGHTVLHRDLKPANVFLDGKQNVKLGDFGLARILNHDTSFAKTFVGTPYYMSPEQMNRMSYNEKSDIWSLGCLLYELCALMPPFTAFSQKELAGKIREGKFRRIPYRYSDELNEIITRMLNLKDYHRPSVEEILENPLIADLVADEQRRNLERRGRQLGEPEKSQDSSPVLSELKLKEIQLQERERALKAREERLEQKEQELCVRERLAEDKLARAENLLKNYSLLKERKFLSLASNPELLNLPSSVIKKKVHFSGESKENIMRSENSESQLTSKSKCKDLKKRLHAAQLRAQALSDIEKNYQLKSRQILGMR
Briefly: Selectivity interaction (KinomeScan (DiscoverX)) EUB0000229b NEK2. The following applies: at 10 µM.

Serine/threonine-protein kinase N2, sequence (Q16513 whole entry, looked up): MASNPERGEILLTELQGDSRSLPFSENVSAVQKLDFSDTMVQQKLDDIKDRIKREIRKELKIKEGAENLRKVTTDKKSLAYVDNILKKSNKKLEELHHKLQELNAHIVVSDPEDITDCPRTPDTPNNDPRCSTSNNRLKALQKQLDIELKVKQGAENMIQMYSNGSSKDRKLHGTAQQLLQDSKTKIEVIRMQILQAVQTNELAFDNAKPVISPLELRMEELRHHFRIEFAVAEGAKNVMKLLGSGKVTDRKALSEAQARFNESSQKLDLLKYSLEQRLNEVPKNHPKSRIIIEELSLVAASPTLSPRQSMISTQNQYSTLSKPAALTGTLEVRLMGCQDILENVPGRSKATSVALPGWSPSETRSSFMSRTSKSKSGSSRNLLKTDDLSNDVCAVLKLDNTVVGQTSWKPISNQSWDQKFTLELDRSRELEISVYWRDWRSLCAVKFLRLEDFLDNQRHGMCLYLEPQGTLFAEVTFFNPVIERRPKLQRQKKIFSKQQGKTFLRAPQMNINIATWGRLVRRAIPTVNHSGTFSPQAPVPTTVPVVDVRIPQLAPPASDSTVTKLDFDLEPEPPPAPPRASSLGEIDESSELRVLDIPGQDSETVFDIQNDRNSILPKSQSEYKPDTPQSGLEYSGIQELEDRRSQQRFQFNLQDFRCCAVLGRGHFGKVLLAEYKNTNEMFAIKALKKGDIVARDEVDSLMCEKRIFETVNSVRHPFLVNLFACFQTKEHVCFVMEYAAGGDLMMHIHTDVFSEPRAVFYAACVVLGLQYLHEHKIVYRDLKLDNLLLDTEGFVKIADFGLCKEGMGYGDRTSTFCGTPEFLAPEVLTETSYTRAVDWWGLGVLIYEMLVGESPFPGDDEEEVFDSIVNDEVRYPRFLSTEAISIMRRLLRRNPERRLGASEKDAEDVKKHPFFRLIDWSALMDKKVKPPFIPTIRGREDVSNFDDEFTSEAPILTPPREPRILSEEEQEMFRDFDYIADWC
STE20-like serine/threonine-protein kinase, sequence (Q9H2G2 whole entry, looked up, canonical isoform): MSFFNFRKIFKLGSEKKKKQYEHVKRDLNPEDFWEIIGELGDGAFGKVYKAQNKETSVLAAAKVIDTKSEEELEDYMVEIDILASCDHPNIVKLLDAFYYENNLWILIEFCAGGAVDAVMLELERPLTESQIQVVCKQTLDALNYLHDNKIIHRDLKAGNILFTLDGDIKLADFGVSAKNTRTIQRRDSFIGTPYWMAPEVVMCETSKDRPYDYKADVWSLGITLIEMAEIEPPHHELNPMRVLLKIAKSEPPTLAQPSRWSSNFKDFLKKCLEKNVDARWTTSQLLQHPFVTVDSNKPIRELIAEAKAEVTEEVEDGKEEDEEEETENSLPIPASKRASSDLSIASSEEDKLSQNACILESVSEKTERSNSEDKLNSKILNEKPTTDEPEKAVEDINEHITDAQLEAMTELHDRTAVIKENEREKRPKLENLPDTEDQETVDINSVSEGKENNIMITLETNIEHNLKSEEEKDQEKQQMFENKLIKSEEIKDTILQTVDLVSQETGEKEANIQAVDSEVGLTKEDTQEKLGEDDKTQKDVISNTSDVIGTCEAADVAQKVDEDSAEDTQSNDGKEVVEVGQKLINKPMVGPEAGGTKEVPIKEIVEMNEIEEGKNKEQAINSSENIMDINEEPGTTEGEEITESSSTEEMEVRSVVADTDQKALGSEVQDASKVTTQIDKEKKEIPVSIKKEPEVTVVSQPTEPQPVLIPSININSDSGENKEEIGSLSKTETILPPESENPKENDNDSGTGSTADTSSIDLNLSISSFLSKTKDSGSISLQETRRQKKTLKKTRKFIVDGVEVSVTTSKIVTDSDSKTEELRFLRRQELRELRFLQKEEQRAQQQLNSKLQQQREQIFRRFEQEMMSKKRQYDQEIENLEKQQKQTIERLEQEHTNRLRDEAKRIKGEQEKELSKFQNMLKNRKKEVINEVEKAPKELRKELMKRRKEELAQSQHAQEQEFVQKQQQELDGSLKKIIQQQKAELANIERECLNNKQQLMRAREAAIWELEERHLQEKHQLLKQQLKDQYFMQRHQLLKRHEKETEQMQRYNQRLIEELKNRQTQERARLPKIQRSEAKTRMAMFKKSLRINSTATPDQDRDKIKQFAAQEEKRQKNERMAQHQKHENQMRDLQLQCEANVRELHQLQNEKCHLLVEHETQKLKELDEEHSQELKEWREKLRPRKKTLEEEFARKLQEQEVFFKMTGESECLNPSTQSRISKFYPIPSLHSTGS
T2 sequence (P49137 whole entry, looked up): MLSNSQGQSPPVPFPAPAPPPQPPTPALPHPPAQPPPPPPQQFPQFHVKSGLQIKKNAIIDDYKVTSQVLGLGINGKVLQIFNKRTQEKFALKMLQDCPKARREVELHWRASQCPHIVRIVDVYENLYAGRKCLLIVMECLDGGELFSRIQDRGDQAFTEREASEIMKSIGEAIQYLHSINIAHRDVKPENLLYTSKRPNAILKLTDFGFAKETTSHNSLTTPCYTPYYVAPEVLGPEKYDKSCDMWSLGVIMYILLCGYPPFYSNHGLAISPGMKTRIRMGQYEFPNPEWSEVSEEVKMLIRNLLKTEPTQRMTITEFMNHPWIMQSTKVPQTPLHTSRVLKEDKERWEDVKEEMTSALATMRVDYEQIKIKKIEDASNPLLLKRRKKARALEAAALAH
Ribosomal protein S6 kinase alpha-6, sequence (Q9UK32 whole entry): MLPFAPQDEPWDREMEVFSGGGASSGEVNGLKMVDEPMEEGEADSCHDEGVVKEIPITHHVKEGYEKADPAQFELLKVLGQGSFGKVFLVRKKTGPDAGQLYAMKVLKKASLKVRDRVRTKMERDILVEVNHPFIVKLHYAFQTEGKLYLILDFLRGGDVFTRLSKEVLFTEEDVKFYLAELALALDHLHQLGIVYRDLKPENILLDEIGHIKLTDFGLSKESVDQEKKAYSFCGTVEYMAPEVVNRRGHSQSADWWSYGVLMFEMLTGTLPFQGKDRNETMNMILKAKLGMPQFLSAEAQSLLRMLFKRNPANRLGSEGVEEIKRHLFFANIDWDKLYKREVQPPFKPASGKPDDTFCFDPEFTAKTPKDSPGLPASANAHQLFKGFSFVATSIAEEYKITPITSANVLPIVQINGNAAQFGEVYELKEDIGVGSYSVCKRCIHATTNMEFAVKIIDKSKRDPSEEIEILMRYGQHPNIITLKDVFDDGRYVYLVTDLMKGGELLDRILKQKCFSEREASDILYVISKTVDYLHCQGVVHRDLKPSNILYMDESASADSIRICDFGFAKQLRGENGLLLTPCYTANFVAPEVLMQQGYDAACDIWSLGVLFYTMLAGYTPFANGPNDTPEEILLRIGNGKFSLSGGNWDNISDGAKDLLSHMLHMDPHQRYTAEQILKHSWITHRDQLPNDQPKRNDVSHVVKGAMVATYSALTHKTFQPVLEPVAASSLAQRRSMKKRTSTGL
Protein kinase C beta type, sequence (P05771 2-671 limits assumed): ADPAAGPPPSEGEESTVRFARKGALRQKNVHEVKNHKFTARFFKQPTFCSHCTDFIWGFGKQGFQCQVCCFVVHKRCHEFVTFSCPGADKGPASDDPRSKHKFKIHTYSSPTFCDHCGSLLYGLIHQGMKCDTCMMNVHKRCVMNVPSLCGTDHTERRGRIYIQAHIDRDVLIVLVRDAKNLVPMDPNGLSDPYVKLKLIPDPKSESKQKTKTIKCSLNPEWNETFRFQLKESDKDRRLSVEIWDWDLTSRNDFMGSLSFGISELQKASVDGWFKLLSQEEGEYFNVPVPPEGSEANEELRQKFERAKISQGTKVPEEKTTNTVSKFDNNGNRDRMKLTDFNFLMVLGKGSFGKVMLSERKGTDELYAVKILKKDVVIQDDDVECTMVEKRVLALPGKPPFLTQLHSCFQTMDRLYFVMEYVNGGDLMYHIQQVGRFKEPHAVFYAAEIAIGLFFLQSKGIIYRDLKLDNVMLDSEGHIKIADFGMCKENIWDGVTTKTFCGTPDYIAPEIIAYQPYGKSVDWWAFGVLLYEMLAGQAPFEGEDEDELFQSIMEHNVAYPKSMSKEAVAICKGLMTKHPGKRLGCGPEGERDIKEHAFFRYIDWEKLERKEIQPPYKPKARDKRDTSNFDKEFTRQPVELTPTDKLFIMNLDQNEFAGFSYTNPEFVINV
Cyclin-dependent kinase 5, sequence (Q00535 whole entry, looked up): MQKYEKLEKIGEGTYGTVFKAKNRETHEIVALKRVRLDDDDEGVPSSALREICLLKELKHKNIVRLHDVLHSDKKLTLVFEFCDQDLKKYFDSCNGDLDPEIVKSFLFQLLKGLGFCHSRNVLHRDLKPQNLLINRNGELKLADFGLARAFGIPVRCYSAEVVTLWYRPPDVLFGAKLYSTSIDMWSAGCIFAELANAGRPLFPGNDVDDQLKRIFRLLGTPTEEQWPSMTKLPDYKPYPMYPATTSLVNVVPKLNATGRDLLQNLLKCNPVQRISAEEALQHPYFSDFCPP
Atypical kinase COQ8A, mitochondrial, sequence (Q8NI60 163-647 limits assumed): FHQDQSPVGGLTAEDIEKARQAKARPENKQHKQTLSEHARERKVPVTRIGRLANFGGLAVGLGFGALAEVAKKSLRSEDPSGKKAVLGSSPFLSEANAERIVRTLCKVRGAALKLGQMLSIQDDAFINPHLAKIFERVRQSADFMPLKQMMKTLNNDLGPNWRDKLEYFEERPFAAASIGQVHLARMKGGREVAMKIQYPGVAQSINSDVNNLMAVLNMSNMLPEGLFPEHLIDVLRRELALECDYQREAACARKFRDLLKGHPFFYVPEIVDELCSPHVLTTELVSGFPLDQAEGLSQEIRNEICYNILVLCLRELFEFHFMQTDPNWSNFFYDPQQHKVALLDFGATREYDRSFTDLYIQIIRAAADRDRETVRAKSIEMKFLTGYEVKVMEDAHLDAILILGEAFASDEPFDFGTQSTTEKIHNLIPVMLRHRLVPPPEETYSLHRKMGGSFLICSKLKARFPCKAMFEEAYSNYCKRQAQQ

For the compound `Cn1cc(-n2cnc3c(NCc4nc5cc(Cl)c(Cl)cc5[nH]4)nc(N4CCOCC4)nc32)cn1`, the % of control in test [1] is 4.98%.

`Cc1cc(F)c(C(=O)Nc2cccc(-c3nncn3C(C)C)n2)cc1-n1cnc(C2CC2)c1` returned a % of control in [2] of 86%.

In test [3], `O=C(NOC[C@H](O)CO)c1ccc(F)c(F)c1Nc1ccc(I)cc1F` showed a % of control of 97%.

Turning to `CNC(=O)Nc1ccc(-c2nc(N3CC4CCC(C3)O4)c3cnn(C4CCC5(CC4)OCCO5)c3n2)cc1`, the results for the % of inhibition in test [4] and in [5] were -1% and 11%, respectively.

As for `Cc1cc([C@@H](C)Nc2ccccc2C(=O)O)c2nc(N3CCOCC3)cc(=O)n2c1` [AZD-6482], the % of control in test [6] worked out at 66%.

Consider `Cc1cnc(Nc2ccc(F)cc2Cl)nc1-c1c[nH]c(C(=O)N[C@H](CO)c2cccc(Cl)c2)c1`, for which, in [7], the % of inhibition is 11%.

On to `CC[C@@H]1[C@H](F)C(=O)N[C@@H]1COc1nccc2cc(C(N)=O)c(OC)cc12` [ZIMLOVISERTIB], for which the % of inhibition was -6.8% in [8]; -9.2% in [9]; -6.1% in test [10] (at 0.01 µM); -5.7% in test [10] (at 0.04 µM); 2.9% in test [10] (at 0.2 µM); 18.9% in test [10] (at 1 µM). Moreover, the % of inhibition in [10] (at 5 µM) was -9.1%.

Regarding `C=CC(=O)Nc1cc(-n2c(=O)ccc3cnc4ccc(-c5ccc(NS(C)(=O)=O)cc5)cc4c32)ccc1C`, the % of control in test [11] (at 1 µM) is 96%; in test [11] (at 10 µM) it was 97%; in test [12] (at 1 µM), 59%; in test [12] (at 10 µM), 100%.

Regarding `CN(C)C/C=C/C(=O)Nc1ccc(C(=O)N2CCCC(Nc3ncc(Cl)c(-c4c[nH]c5ccccc45)n3)C2)cc1` (stereo not drawn), the results for the % of control in test [13] and in test [14] were 100% and 90%, respectively.

As for `CCC(=O)N1CC[C@H](Nc2ncnc3c2CN(c2cnc(OC)c(C(F)(F)F)c2)CC3)C1` [LENIOLISIB], the IC50 in [15] is greater than 30 µM.

In [16], `CN(C)CCOc1ccc(-c2nc(-c3ccncc3)c(-c3ccc4c(c3)CC/C4=N\O)[nH]2)cc1` showed a % of control of 100%.

`COc1cc(N(C)c2ccnc3ccc(C(F)(F)F)cc23)cc(OC)c1OC` gave a % binding in [17] of 92%.

Values taken from ChEMBL document CHEMBL5465560, “Selectivity Literature for EUbOPEN Chemogenomic Library” (2024).
